Reference: PubChem BioAssay (NCI)
“And” between values parts separate entries of the source, which are not always exact repeats. Equal values may be shown once.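 These data come from cells grown in 96-well plates and exposed to compound for 48 hours at five concentrations. GI50 = concentration required for 50% inhibition of growth. TGI: concentration producing complete growth inhibition.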

Each compound was assayed on SR leukemia (assay: growth of human tumour cells (NCI), 48 h).

Compound	GI50 [µM]	TGI
N#Cc1nc(-c2ccc(F)cc2)oc1S(=O)(=O)N1CCOCC1	0.439	2.92 µM
Cc1c(Cl)cccc1Nc1ncccc1C(=O)O	> 100	> 100 µM
COc1cc2c(c(O)c1C)C(=O)C(Cl)=CC2=O	–	4.37 µM
Fc1ccc(-c2nn(-c3ccccc3)cc2-c2nc3ccccc3o2)cc1	3.71	> 100 µM
CN=C1NC(=O)/C(=C/c2ccc3ncccc3c2)S1	2.14	16.7 µM
CN(C)CCNC(=O)c1cccc2nc3c(Cl)cccc3nc12	–	> 100 µM
COc1ccc(CN2CCCC(C(=O)c3ccc(C(F)(F)F)cc3)C2)c(O)c1 (configuration not stated)	18	66.5 µM
O=S(=O)(O)C(O)/C=C/c1ccccc1 (configuration not stated)	–	> 100 µM
OCCNCO	–	> 100 µM
CC1=C2[C@@H](CC1)[C@]1(C)O[C@@](C(C)C)(C[C@H]1OC(=O)[C@H](C)O)[C@H]2OC(=O)/C=C/c1ccccc1	10.3	37.5 µM
O=C(Cc1ccc(/C=C/C(=O)c2ncc[nH]2)cc1)Nc1ccc(Cl)cc1	0.798	> 25 µM
Cc1c(C(=O)/C=C/c2cccc3ccccc23)[n+](=O)c2ccccc2n1[O-]	–	38.2 µM
COC(=O)c1c2c(c(C)[n+]([O-])c1C)C(=O)C=CC2=O	2.28	8.19 µM
C[C@@H]1Cc2c([nH]c3ccccc23)[C@@H](c2c(F)cc(/C=C/C(=O)O)cc2F)N1CC(C)(C)F	15.9	48.4 µM
O=C1CCC(NC(=O)c2ccccc2)C(=O)N1 (configuration not stated)	–	> 100 µM
CC1(C)N=C(N)N=C(N)N1c1ccc(CCCCc2ccc(S(=O)(=O)F)cc2Cl)c(Cl)c1	–	> 500 µM

Compound	GI50 [µM]	TGI
CN(C)c1ccc(/C=C2\C[N+](C)(C)C/C(=C\c3ccc(N(C)C)cc3)C2=O)cc1	–	36.6 µM
NS(=O)(=O)c1ccc(-n2nc(-c3ccc(Br)cc3)ccc2=O)cc1	8.85	> 10 µM
Cn1cc(C2=C(c3ccc(OC[C@@H](O)CO)cc3)C(=O)NC2=O)c2ccccc21	> 25	> 25 µM
CCOC(=O)c1cc(-c2ccc([N+](=O)[O-])cc2)n(-c2ccc(C(=O)O)c(O)c2)c1C	9.3	> 100 µM
N#Cc1cnn2ccn(C3OC(COC(=O)c4ccccc4)C(OC(=O)c4ccccc4)C3OC(=O)c3ccccc3)c12 (configuration not stated)	–	> 31.6 µM
CCOc1ccc2nc(NC(=O)/C(CC(=O)CC(C3=C(O)c4ccccc4CC3=O)c3ccccc3)=N\O)sc2c1 (configuration not stated)	–	> 100 µM
CCN1CCN(c2nc(NCCNc3ccnc4cc(Cl)ccc34)c3ccccc3n2)CC1	0.287	0.898 µM
CN(C)c1ccc2c(c1)oc(=O)c1ccccc12	–	21.5 µM
CC1=C[C@@H]2Cc3occc3C(C)(C)[C@@H]2CC1	–	32.7 µM
CC(=O)c1ccc(N(/C=C/C(=O)C(F)(F)F)CC(=O)c2ccc(Cl)c(Cl)c2)cc1	3.59	19.3 µM
O=c1c(Cl)c(Cl)cnn1-c1ccccc1	–	> 19.7 µM and 3.92 µM
COc1cccc(-c2nn(-c3ccccc3)cc2-c2ccnc(NCCCNS(=O)(=O)c3cccc(F)c3)c2)c1	2.13	7.22 µM
NC1(CCCCCCCCCCC(=O)O)CNCCNCCNCCNC1	–	67.2 µM
C#CC(C)(C)Oc1cc(O)c2c(=O)c3ccccc3n(C)c2c1	–	35.7 µM
CC[n+]1ccc2c(c1)C(=O)c1nccc3c1c-2nc1ccccc13	0.339	12.4 µM

These compounds were tested on LOX IMVI melanoma (assay: growth of human tumour cells (NCI), 48 h).

Compound	GI50 [µM]	TGI [µM]
N#Cc1nc(-c2ccc(F)cc2)oc1S(=O)(=O)N1CCOCC1	1.02	2.3
Cc1c(Cl)cccc1Nc1ncccc1C(=O)O	54.9	> 100
COc1cc2c(c(O)c1C)C(=O)C(Cl)=CC2=O	–	23.8
Fc1ccc(-c2nn(-c3ccccc3)cc2-c2nc3ccccc3o2)cc1	2.36	12.4
CN=C1NC(=O)/C(=C/c2ccc3ncccc3c2)S1	6.74	> 25
CN(C)CCNC(=O)c1cccc2nc3c(Cl)cccc3nc12	–	10.7
